System: skin of the mice
Experiment: Skin irritation test in mice (Draize scoring, Primary Irritation Index)
Assay type: in vivo, Balb/c mice
Details: for primary irritation index: 24 hr exposure, scored at 24 and 72 hours; for primary irritation index / evaluation of primary irritation index: mice; for mice with very slight erythema: n=6
Procedure: Lauryl methyl pyrifrin and TMP, two synthesized meso-substituted cationic porphyrins, were tested in vivo to determine the dermal irritation potential to the skin of the mice. The two test agents were prepared with three different concentrations individually, 3 μM, 30 μM, and 300 μM. 10% formic acid and PBS were used as positive and negative control respectively (n=6). […] The back of the animals were clipped free of fur with an electric clipper at least 4 hours before application of the sample. Prior to the application of test agents, each mouse received four parallel epidermal abrasions with a sterile needle at one side of the test area while the skin at the opposite side remained intact. Under anesthesia condition, a 0.5 ml sample of the test article was then applied to each mouse by introduction under a double gauze layer to an area of skin approximately 1″×1″ (2.54×2.54 cm) square. The patches were backed with plastic, covered with a non reactive tape and the entire test site wrapped with a binder. Animals will be returned to their cages. […] The Primary Irritation Index (P.I.I.) (sum of the scored reactions divided by 24 (two scoring intervals multiplied by two test parameters multiplied by six mice)) of the test article was calculated following test completion. A material producing a P.I.I. score of greater than or equal to 5.00 would be considered positive; the material would be considered a primary irritant to the skin (Table 2).

CCCCCCCCCCCC[n+]1ccc(-c2c3nc(c(-c4cc[n+](C)cc4)c4ccc([nH]4)c(-c4cc[n+](C)cc4)c4nc(c(-c5cc[n+](C)cc5)c5ccc2[nH]5)C=C4)C=C3)cc1.Cc1ccc(S(=O)(=O)[O-])cc1.Cc1ccc(S(=O)(=O)[O-])cc1.Cc1ccc(S(=O)(=O)[O-])cc1.Cc1ccc(S(=O)(=O)[O-])cc1 [lauryl methyl pyrifrin]
primary irritation index (3 μM): 0.00
evaluation of primary irritation index (3 μM): no irritation
primary irritation index (30 μM): 0.175
erythema observed (30 μM, after 24 hours, abraded area implied): very slight erythema
mice with very slight erythema (30 μM, after 24 hours): 2/6
erythema observed (30 μM, after 72 hours): very slight erythema
evaluation of primary irritation index (30 μM): irritation barely perceptible
primary irritation index (300 μM): 1.4
edema observed (300 μM, after 24 hours): Slight edema
erythema observed (300 μM, after 24 hours, abraded area implied): very slight erythema
mice with very slight erythema (300 μM, after 24 hours): 6/6
evaluation of primary irritation index (300 μM): slight irritation
erythema and edema at the intact area (intact area, all concentrations except 300 μM TMP): no erythema and edema
